Activity calls are given as the source filed them. The rule behind the calls is not given here.

This data set relates to CCRIS mutagenicity, Ames/micronucleus/aberration tests. The data set can be described thus: CCRIS mutagenicity studies.

For the compound `O=C(O)C(Cl)Br` (centres undefined), the mutagenic call (End Point: In vivo micronucleus, Test System: Peripheral blood normochromatic erythrocytes, Species: Mouse, Strain/Sex: B6C3F1/Female, Route: Oral) was “inactive; negative”; the mutagenic call (End Point: In vivo micronucleus, Test System: Peripheral blood normochromatic erythrocytes, Species: Mouse, Strain/Sex: B6C3F1/Male, Route: Oral) is “inactive; negative”; the mutagenic call (Test System: AMES SALMONELLA TYPHIMURIUM, Strain/Indicator: TA98, Metabolic Activation: NONE, Method: PREINCUBATION) is “inactive; negative”; the mutagenic call (Test System: AMES SALMONELLA TYPHIMURIUM, Strain/Indicator: TA98, Metabolic Activation: RAT, LIVER, S-9, PHENOBARBITAL AND 5,6-BENZOFLAVONE, Method: PREINCUBATION) was “inactive; negative”; the mutagenic call (Test System: AMES SALMONELLA TYPHIMURIUM, Strain/Indicator: TA100, Metabolic Activation: NONE, Method: PREINCUBATION) is “active; positive”; the mutagenic call (Test System: AMES SALMONELLA TYPHIMURIUM, Strain/Indicator: TA100, Metabolic Activation: RAT, LIVER, S-9, PHENOBARBITAL AND 5,6-BENZOFLAVONE, Method: PREINCUBATION) was “active; positive”. In addition, the mutagenic call reads like this: (Test System: Ames Salmonella typhimurium, Strain/Indicator: TA98, Metabolic Activation: Hamster, Liver, S9, Aroclor 1254, Method: Preincubation) “inactive; negative”; (Test System: Ames Salmonella typhimurium, Strain/Indicator: TA98, Metabolic Activation: None, Method: Preincubation) “inactive; negative”; (Test System: Ames Salmonella typhimurium, Strain/Indicator: TA98, Metabolic Activation: Rat, Liver, S9, Aroclor 1254, Method: Preincubation) “inactive; negative”; (Test System: Ames Salmonella typhimurium, Strain/Indicator: TA100, Metabolic Activation: Hamster, Liver, S9, Aroclor 1254 (30%), Method: Preincubation) “active; positive”; (Test System: Ames Salmonella typhimurium, Strain/Indicator: TA100, Metabolic Activation: Rat, Liver, S9, Aroclor 1254 (10%), Method: Preincubation) “active; positive”; (Test System: Ames Salmonella typhimurium, Strain/Indicator: TA100, Metabolic Activation: Rat, Liver, S9, Aroclor 1254 (30%), Method: Preincubation) “active; positive”. Also, the mutagenic call by setting is: (Test System: E. coli, Strain/Indicator: WP2 uvrA/pKM101, Metabolic Activation: None, Method: Preincubation) “inactive; negative”; (Test System: E. coli, Strain/Indicator: WP2 uvrA/pKM101, Metabolic Activation: Rat, Liver, S9, Aroclor 1254 (10%), Method: Preincubation) “inactive; negative”.

For the compound `CC(=O)N(O)c1ccc(Cl)c(Cl)c1`, the mutagenic call (Test System: AMES SALMONELLA TYPHIMURIUM, Strain/Indicator: TA97, Metabolic Activation: NONE, Method: STANDARD PLATE) is “inactive; negative”; the mutagenic call (Test System: AMES SALMONELLA TYPHIMURIUM, Strain/Indicator: TA97, Metabolic Activation: RAT, LIVER, S-9, AROCLOR 1254, Method: STANDARD PLATE) was “inactive; negative”; the mutagenic call (Test System: AMES SALMONELLA TYPHIMURIUM, Strain/Indicator: TA98, Metabolic Activation: NONE, Method: STANDARD PLATE) was “inactive; negative”; the mutagenic call (Test System: AMES SALMONELLA TYPHIMURIUM, Strain/Indicator: TA98, Metabolic Activation: RAT, LIVER, S-9, AROCLOR 1254, Method: STANDARD PLATE) was “inactive; negative”; the mutagenic call (Test System: AMES SALMONELLA TYPHIMURIUM, Strain/Indicator: TA100, Metabolic Activation: NONE, Method: STANDARD PLATE) is “inactive; negative”; the mutagenic call (Test System: AMES SALMONELLA TYPHIMURIUM, Strain/Indicator: TA100, Metabolic Activation: RAT, LIVER, S-9, AROCLOR 1254, Method: STANDARD PLATE) is “inactive; negative”. Also, the mutagenic call runs as follows: (Test System: AMES SALMONELLA TYPHIMURIUM, Strain/Indicator: TA104, Metabolic Activation: NONE, Method: STANDARD PLATE) “inactive; negative”; (Test System: AMES SALMONELLA TYPHIMURIUM, Strain/Indicator: TA104, Metabolic Activation: RAT, LIVER, S-9, AROCLOR 1254, Method: STANDARD PLATE) “inactive; negative”.

With `CC(OP(=O)(OC(C)C(Br)CBr)OC(C)C(Br)CBr)C(Br)CBr` (centres undefined), the mutagenic call runs as follows: (Test System: AMES SALMONELLA TYPHIMURIUM, Strain/Indicator: TA100, Metabolic Activation: RAT, LIVER, MICROSOMES, PHENOBARBITAL, Method: PREINCUBATION) “active; positive”; (Test System: AMES SALMONELLA TYPHIMURIUM, Strain/Indicator: TA100, Metabolic Activation: RAT, LIVER, MICROSOMES, Method: PREINCUBATION) “active; positive”.

The values are drawn from PubChem BioAssay AID1259407 (Chemical Carcinogenesis Research Information System (CCRIS), 2018).
